{"source": "patent US6761896B1", "about": "“Skin cosmetic care system and method” (Unilever Home & Personal Care USA, division of Conopco, Inc., priority 1998, dated 2004)", "key": {"pig epidermal cells": {"test_system": "pig epidermal cells", "experiment": "DNA synthesis (3H-thymidine) of pig skin organ cultures, epidermis", "format": "cell-based", "settings": "for activity at 20 µM / activity at 200 µM / activity at 2000 µM: Sus scrofa, read-out: DNA synthesis AS % OF CONTROL", "description": "Freshly excised 2-3 week old piglet skins were obtained from Buckshire Farms, Pa. The pig skins were washed exhaustively first with soap and then with 10× antibiotic containing medium (penicillin, streptomycin). The pig skins were then dermatomed at 200 microns thickness. Seven (7) mm punch biopsies were made from these washed pig skins. The biopsies are then washed again with the 10× antibiotic medium and finally with normal DMEM (2 washes). Three (3) biopsies were incubated in each transwell plates, epidermal side up, with 1 ml of serum free DMEM fed from the bottom of the plates. Experiments were started 3 days after the biopsies were equilibrated under these conditions. Three (3) days after equilibrating the pig skin organ cultures prepared as described above, the medium was removed, 1 ml of fresh medium was added, and the wells were treated with different concentrations of lactic acid by adding from a 100 fold concentrated stock in water, directly into the medium. Simultaneous with the addition of lactic acid, selected cultures were also exposed to the South or North pole of a bar magnet or to the Bioflex magnet. The magnets were placed on top of the culture dish to expose the epidermis directly (the organ culture is carried out with the epidermis side on top). Three (3) days later, medium was changed, lactic acid was re-added, and 10 uCi ^3H-thymidine was added to each well. Plates were incubated for a further 24 hrs. At the end of the incubation period, biopsies were removed, washed in PBS for 1 hr with shaking, and incubated overnight in 10 ml of 2M sodium bromide with shaking to split the epidermis from the dermis. The biopsies were washed with PBS, and the epidermis was peeled off from dermis carefully using a scalpel. The epidermis and dermis were digested with 1 ml of 0.5N NaOH overnight at 50 C, 200 ul was used for counting the radioactivity. The DNA synthesis rate was calculated as cpm/7 mm punch biopsy for dermis or epidermis and in some experiments expressed also as % of controls. All organ culture experiments were conducted with at least 6 replicates, and the mean+/−standard deviation was calculated for statistical analysis using Students t-test."}, "[1]": {"test_system": "normal human keratinocytes", "experiment": "Keratinocyte proliferation measured by DNA content (monolayer cultures)", "format": "cell-based", "description": "The cells used in these studies are normal human keratinocytes and pig skin organ cultures. The normal human keratinocytes isolated from neonatal foreskins by trypsin treatment were growth in DME medium/5% fetal calf serum in the presence of mitomycin C treated 3T3 mouse fibroblasts of establishing dividing colonies. Keratinocytes were grown under these conditions until their third passage. For the experiments, third passage keratinocytes were plated into a serum-free keratincoyte growth medium (KGM; obtained form Clonetics, San Diego, Calif.) containing 0.15 mM calcium. Neonatal human fibroblasts were obtained from Clonetics and grown in Dulbecco's Minimum essential medium (DMEM) containing 10% fetal calf serum. Experiments were conducted in cells between passage numbers 4-10. Keratinocytes were plated in the middle 60 wells of 96 well plates (3000 cells/well). 24 hrs later, the plates were placed on top, in the middle of the magnet (bar or Bioflex) and grown for a further 4 days until the cells become 70-80% confluent. Medium was changed every 2 or 3 days. Control plates were placed on top of a nonmagnetic metal plate and the test plates were placed on top of the bar magnet (North or South side up) or in the middle of the Bioflex magnet. In some studies where the growth of cells were measured as a function of magnetic force, plates were placed on top of one another on top of the magnet such that the bottom plate is closest to the magnet (highest force) and the top plate is the furthest away from the magnet (lowest magnetic force). Studies to assess the effects of North and South magnets were carried out in different incubators to avoid the influence of one magnet on the other. After 4 days of growth, the plates were removed from the incubator, washed 2 times with phosphate buffered saline (PBS), and incubated with 100 ul of a bisbenzimide H 33258 solution (obtained from Calbiochem—stock solution was prepared at 1 mg/ml distilled water,'stored in dark at 4° C. for no longer than 1 week). After 15 min of incubation in the dark at room temperature, fluorescence was measured on a Millipore Cytofluor 2000b (ex/em=360/460 nm). The DNA content was calculated using a standard of calf thymus DNA and expressed as ug/well or as % of control wells which were not exposed to magnets. In all the studies using monolayer cultures mean+/−standard deviation of at least 24 different wells were used to calculate statistical significance using Students t-test. Example 3 evaluated the synergy between lactic acid and magnetic field in inducing the proliferation of keratinocytes. In this study, using in vitro keratinocyte cultures, 2 mM lactic acid increased proliferation by 5.4%. This increase was not statistically significant. […]"}, "[2]": {"settings": "Example 5, 0.02 mM LA + South pole of bar magnet"}, "[3]": {"settings": "Example 5, 0.02 mM LA, no magnet"}, "[4]": {"settings": "Example 5, 0.2 mM LA + South pole of bar magnet"}, "[5]": {"settings": "Example 5, 0.2 mM LA, no magnet"}, "[6]": {"settings": "Example 5, 2.0 mM LA + South pole of bar magnet"}, "[7]": {"settings": "Example 5, 2.0 mM LA, no magnet"}, "[8]": {"settings": "Example 6, 0.2 mM LA + North pole"}, "[9]": {"settings": "Example 6, 0.2 mM LA + South pole"}, "[10]": {"settings": "Example 6, 0.2 mM LA, no magnet"}}, "note": "Read-outs that look alike come from different tables or passages of the source."}
{"smiles": "CC(O)C(=O)O", "note": "(stereo not shown) [LA, lactic acid]", "values": [{"measurement": "DNA SYNTHESIS (CPM/BIOPSY) MEAN +/- STD", "setting": "pig epidermal cells; [2]", "value": "7915 +/− 2807 CPM/BIOPSY"}, {"measurement": "DNA SYNTHESIS (CPM/BIOPSY) MEAN +/- STD", "setting": "pig epidermal cells; [3]", "value": "4670 +/− 497 CPM/BIOPSY"}, {"measurement": "DNA SYNTHESIS (CPM/BIOPSY) MEAN +/- STD", "setting": "pig epidermal cells; [4]", "value": "8402 +/− 512 CPM/BIOPSY"}, {"measurement": "DNA SYNTHESIS (CPM/BIOPSY) MEAN +/- STD", "setting": "pig epidermal cells; [5]", "value": "5030 +/− 958 CPM/BIOPSY"}, {"measurement": "epidermal proliferation, % over control", "setting": "pig epidermal cells; Example 5, 2 mM LA + South pole", "value": 165, "unit": "%"}, {"measurement": "DNA SYNTHESIS (CPM/BIOPSY) MEAN +/- STD", "setting": "pig epidermal cells; [6]", "value": "11523 +/− 2123 CPM/BIOPSY"}, {"measurement": "synergy of LA and South pole on epidermal proliferation", "setting": "pig epidermal cells; Example 5, 2 mM LA + South pole vs additive response", "value": "Synergies were observed"}, {"measurement": "epidermal proliferation, % over control", "setting": "pig epidermal cells; Example 5, 2 mM LA alone", "value": 43, "unit": "%"}, {"measurement": "DNA SYNTHESIS (CPM/BIOPSY) MEAN +/- STD", "setting": "pig epidermal cells; [7]", "value": "6216 +/− 1035 CPM/BIOPSY"}, {"measurement": "effect on epidermal proliferation", "setting": "pig epidermal cells; Example 5, 0.02 and 0.2 mM lactic acid, no magnet", "value": "no significant effect"}, {"measurement": "DNA SYNTHESIS (CPM/BIOPSY) MEAN +/- STD", "setting": "pig epidermal cells; [8]", "value": "69726 +/− 29913 CPM/BIOPSY"}, {"measurement": "proliferative response, % over control", "setting": "pig epidermal cells; [8]", "value": 112, "unit": "%"}, {"measurement": "synergy of LA with North pole on epidermal proliferation", "setting": "pig epidermal cells; Example 6, 0.2 mM LA + North pole vs north alone control", "value": "not synergistic"}, {"measurement": "DNA SYNTHESIS (CPM/BIOPSY) MEAN +/- STD", "setting": "pig epidermal cells; [9]", "value": "81393 +/− 11738 CPM/BIOPSY"}, {"measurement": "proliferative response, % over control", "setting": "pig epidermal cells; [9]", "value": 146, "unit": "%"}, {"measurement": "synergy of LA with South pole on epidermal proliferation", "setting": "pig epidermal cells; Example 6, 0.2 mM LA + South pole vs LA alone or South pole alone", "value": "synergistic"}, {"measurement": "DNA SYNTHESIS (CPM/BIOPSY) MEAN +/- STD", "setting": "pig epidermal cells; [10]", "value": "41076 +/− 24767 CPM/BIOPSY"}, {"measurement": "effect on epidermal proliferation", "setting": "pig epidermal cells; Example 6, 0.2 mM Lactic acid alone", "value": "no significant effect"}, {"measurement": "activity at 20 µM", "setting": "pig epidermal cells; [2]", "value": 182, "unit": "%"}, {"measurement": "activity at 20 µM", "setting": "pig epidermal cells; [3]", "value": 107, "unit": "%"}, {"measurement": "activity at 200 µM", "setting": "pig epidermal cells; [4]", "value": 193, "unit": "%"}, {"measurement": "activity at 200 µM", "setting": "pig epidermal cells; [5]", "value": 115, "unit": "%"}, {"measurement": "activity at 2000 µM", "setting": "pig epidermal cells; [6]", "value": 265, "unit": "%"}, {"measurement": "activity at 2000 µM", "setting": "pig epidermal cells; [7]", "value": 143, "unit": "%"}, {"measurement": "activity at 200 µM", "setting": "pig epidermal cells; [8]", "value": 211, "unit": "%"}, {"measurement": "activity at 200 µM", "setting": "pig epidermal cells; [9]", "value": 246, "unit": "%"}, {"measurement": "activity at 200 µM", "setting": "pig epidermal cells; [10]", "value": 124, "unit": "%"}, {"measurement": "DNA content, Average", "setting": "[1]; 2 mM lactic acid + BIOflex magnet", "value": 277}, {"measurement": "stimulation of keratinocyte proliferation", "setting": "[1]; 2 mM lactic acid in the presence of BIOflex magnet, statistically significant", "value": 15, "unit": "%"}, {"measurement": "DNA content, Average", "setting": "[1]; 2 mM lactic acid, no magnet", "value": 254}, {"measurement": "increase in keratinocyte proliferation", "setting": "[1]; 2 mM lactic acid, no magnet, not statistically significant", "value": 5.4, "unit": "%"}]}
